# Results as given in PubChem BioAssay AID2060887 (Molecular Pharmacology Branch, DTP, NCI, 2025).
# System: 782815-120-R-J1-PDC complex spheroid viability
# Test: Anticancer human tumor 782815-120-R-J1-PDC patient-derived colon adenocarcinoma cell line growth inhibition [RAS]
# Details: for viability, T/C: stronger effect = lower value
# How it was run: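 Agents were tested in combination matrices in half-log decrements from a top concentration at or near clinical Cmax (10 microM if undetermined). Targets were multi-cell spheroids of tumour lines plus HUVEC and MSC stromal cells.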
# [1] = curve of first compound, second compound 0.000949 µM
# [2] = curve of first compound, second compound 0.003 µM
# [3] = curve of first compound, second compound 0.00949 µM
# [4] = curve of first compound, second compound 0.03 µM
# [5] = curve of first compound, second compound 0.0949 µM
# [6] = curve of first compound, second compound 0.3 µM
# [7] = second compound 0.000949 µM, first compound 0.0316 µM
# [8] = second compound 0.000949 µM, first compound 0.1 µM
# [9] = second compound 0.000949 µM, first compound 0.316 µM
# [10] = second compound 0.000949 µM, first compound 1 µM
# [11] = second compound 0.000949 µM, first compound 3.16 µM
# [12] = second compound 0.000949 µM, first compound 10 µM
# [13] = second compound 0.003 µM, first compound 0.0316 µM
# [14] = second compound 0.003 µM, first compound 0.1 µM
# [15] = second compound 0.003 µM, first compound 0.316 µM
# [16] = second compound 0.003 µM, first compound 1 µM
# [17] = second compound 0.003 µM, first compound 3.16 µM
# [18] = second compound 0.003 µM, first compound 10 µM
# [19] = second compound 0.00949 µM, first compound 0.0316 µM
# [20] = second compound 0.00949 µM, first compound 0.1 µM
# [21] = second compound 0.00949 µM, first compound 0.316 µM
# [22] = second compound 0.00949 µM, first compound 1 µM
# [23] = second compound 0.00949 µM, first compound 3.16 µM
# [24] = second compound 0.00949 µM, first compound 10 µM
# [25] = second compound 0.03 µM, first compound 0.0316 µM
# [26] = second compound 0.03 µM, first compound 0.1 µM
# [27] = second compound 0.03 µM, first compound 0.316 µM
# [28] = second compound 0.03 µM, first compound 1 µM
# [29] = second compound 0.03 µM, first compound 3.16 µM
# [30] = second compound 0.03 µM, first compound 10 µM
# [31] = second compound 0.0949 µM, first compound 0.0316 µM
# [32] = second compound 0.0949 µM, first compound 0.1 µM
# [33] = second compound 0.0949 µM, first compound 0.316 µM
# [34] = second compound 0.0949 µM, first compound 1 µM
# [35] = second compound 0.0949 µM, first compound 3.16 µM
# [36] = second compound 0.0949 µM, first compound 10 µM
# [37] = second compound 0.3 µM, first compound 0.0316 µM
# [38] = second compound 0.3 µM, first compound 0.1 µM
# [39] = second compound 0.3 µM, first compound 0.316 µM
# [40] = second compound 0.3 µM, first compound 1 µM
# [41] = second compound 0.3 µM, first compound 3.16 µM
# [42] = second compound 0.3 µM, first compound 10 µM
# 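Also: spheroids exposed to compounds for 7 days before reading.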
# 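For viability, T/C in this document: 100% = DMSO vehicle control viability.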
structure (smiles),measurement,setting,value
CC1(O)CCCC1n1c(=O)c(C(F)F)cc2cnc(NC3CCN(S(C)(=O)=O)CC3)nc21 (stereo not drawn) + CCn1c(-c2cccnc2C(C)OC)c2c3cc(ccc31)N1CCOC(CC(NC(=O)C(C(C)C)N(C)C(=O)C3(F)CCN(C(=O)C#CC(C)(C)N(C)C)CC3)C(=O)N3CCCC(N3)C(=O)OCC(C)(C)C2)C1,IC50,[1],4.5 µM
same,IC50,[2],4.63 µM
same,IC50,[3],4.04 µM
same,IC50,[4],4.5 µM
same,IC50,[5],4.86 µM
same,IC50,[6],4.29 µM
same,"viability, T/C",[7],61.7%
same,"viability, T/C",[8],57.9%
same,"viability, T/C",[9],65.8%
same,"viability, T/C",[10],63%
same,"viability, T/C",[11],61.5%
same,"viability, T/C",[12],23.8%
same,"viability, T/C",[13],63.4%
same,"viability, T/C",[14],64.5%
same,"viability, T/C",[15],63.5%
same,"viability, T/C",[16],54.9%
same,"viability, T/C",[17],65.2%
same,"viability, T/C",[18],25.2%
same,"viability, T/C",[19],57.6%
same,"viability, T/C",[20],55.1%
same,"viability, T/C",[21],64.3%
same,"viability, T/C",[22],70.3%
same,"viability, T/C",[23],55%
same,"viability, T/C",[24],24%
same,"viability, T/C",[25],69.3%
same,"viability, T/C",[26],53.7%
same,"viability, T/C",[27],69.1%
same,"viability, T/C",[28],61.9%
same,"viability, T/C",[29],61.3%
same,"viability, T/C",[30],24.8%
same,"viability, T/C",[31],67%
same,"viability, T/C",[32],59.5%
same,"viability, T/C",[33],70.3%
same,"viability, T/C",[34],65.2%
same,"viability, T/C",[35],71.1%
same,"viability, T/C",[36],22%
same,"viability, T/C",[37],66.7%
same,"viability, T/C",[38],50.9%
same,"viability, T/C",[39],58%
same,"viability, T/C",[40],69.2%
same,"viability, T/C",[41],61.5%
same,"viability, T/C",[42],18.7%
O=C(c1ccc(F)c(F)c1Nc1ccc(I)cc1F)N1CC(O)([C@@H]2CCCCN2)C1 + C#Cc1c(F)ccc2cc(O)cc(-c3ncc4c(N5CC6CCC(C5)N6)nc(OCC56CCCN5CC(F)C6)nc4c3F)c12,IC50,"curve of first compound, second compound 0.0316 µM",0.0847 µM
same,IC50,"curve of first compound, second compound 0.1 µM",0.057 µM
same,IC50,"curve of first compound, second compound 0.316 µM",0.0659 µM
same,IC50,"curve of first compound, second compound 1 µM",0.079 µM
same,IC50,"curve of first compound, second compound 3.16 µM",0.0543 µM
same,IC50,"curve of first compound, second compound 10 µM",0.0583 µM
same,"viability, T/C","second compound 0.0316 µM, first compound 0.00316 µM",95.6%
same,"viability, T/C","second compound 0.0316 µM, first compound 0.01 µM",95%
same,"viability, T/C","second compound 0.0316 µM, first compound 0.0316 µM",66%
same,"viability, T/C","second compound 0.0316 µM, first compound 0.1 µM",47.1%
same,"viability, T/C","second compound 0.0316 µM, first compound 0.316 µM",23.6%
same,"viability, T/C","second compound 0.0316 µM, first compound 1 µM",3.7%
same,"viability, T/C","second compound 0.1 µM, first compound 0.00316 µM",97.4%
same,"viability, T/C","second compound 0.1 µM, first compound 0.01 µM",81%
same,"viability, T/C","second compound 0.1 µM, first compound 0.0316 µM",61.5%
same,"viability, T/C","second compound 0.1 µM, first compound 0.1 µM",38.6%
same,"viability, T/C","second compound 0.1 µM, first compound 0.316 µM",20.8%
same,"viability, T/C","second compound 0.1 µM, first compound 1 µM",4.18%
same,"viability, T/C","second compound 0.316 µM, first compound 0.00316 µM",98.7%
same,"viability, T/C","second compound 0.316 µM, first compound 0.01 µM",88.4%
same,"viability, T/C","second compound 0.316 µM, first compound 0.0316 µM",63.1%
same,"viability, T/C","second compound 0.316 µM, first compound 0.1 µM",42.2%
same,"viability, T/C","second compound 0.316 µM, first compound 0.316 µM",19.1%
same,"viability, T/C","second compound 0.316 µM, first compound 1 µM",2.93%
same,"viability, T/C","second compound 1 µM, first compound 0.00316 µM",97.8%
same,"viability, T/C","second compound 1 µM, first compound 0.01 µM",85.4%
same,"viability, T/C","second compound 1 µM, first compound 0.0316 µM",69.7%
same,"viability, T/C","second compound 1 µM, first compound 0.1 µM",46.5%
same,"viability, T/C","second compound 1 µM, first compound 0.316 µM",18.1%
same,"viability, T/C","second compound 1 µM, first compound 1 µM",1.87%
same,"viability, T/C","second compound 3.16 µM, first compound 0.00316 µM",99.4%
same,"viability, T/C","second compound 3.16 µM, first compound 0.01 µM",85.9%
same,"viability, T/C","second compound 3.16 µM, first compound 0.0316 µM",59.1%
same,"viability, T/C","second compound 3.16 µM, first compound 0.1 µM",40.7%
same,"viability, T/C","second compound 3.16 µM, first compound 0.316 µM",10.4%
same,"viability, T/C","second compound 3.16 µM, first compound 1 µM",0.92%
same,"viability, T/C","second compound 10 µM, first compound 0.00316 µM",98.4%
same,"viability, T/C","second compound 10 µM, first compound 0.01 µM",88.3%
same,"viability, T/C","second compound 10 µM, first compound 0.0316 µM",61.4%
same,"viability, T/C","second compound 10 µM, first compound 0.1 µM",41.2%
same,"viability, T/C","second compound 10 µM, first compound 0.316 µM",10.1%
same,"viability, T/C","second compound 10 µM, first compound 1 µM",0.5%
Cc1nc(N2CCC3(CC2)COC(C)C3N)c(CO)nc1Sc1ccnc(N)c1Cl (stereo not drawn) + CCn1c(-c2cccnc2C(C)OC)c2c3cc(ccc31)N1CCOC(CC(NC(=O)C(C(C)C)N(C)C(=O)C3(F)CCN(C(=O)C#CC(C)(C)N(C)C)CC3)C(=O)N3CCCC(N3)C(=O)OCC(C)(C)C2)C1,IC50,[1],> 10 µM
same,IC50,[2],> 10 µM
same,IC50,[3],> 10 µM
same,IC50,[4],> 10 µM
same,IC50,[5],> 10 µM
same,IC50,[6],> 10 µM
same,"viability, T/C",[7],108%
same,"viability, T/C",[8],88%
same,"viability, T/C",[9],99.2%
same,"viability, T/C",[10],94.2%
same,"viability, T/C",[11],98.6%
same,"viability, T/C",[12],93.6%
same,"viability, T/C",[13],93.1%
same,"viability, T/C",[14],95.5%
same,"viability, T/C",[15],104%
same,"viability, T/C",[16],94.5%
same,"viability, T/C",[17],96%
same,"viability, T/C",[18],95.7%
same,"viability, T/C",[19],95.2%
same,"viability, T/C",[20],95.7%
same,"viability, T/C",[21],91.4%
same,"viability, T/C",[22],98.9%
same,"viability, T/C",[23],111%
same,"viability, T/C",[24],94%
same,"viability, T/C",[25],101%
same,"viability, T/C",[26],92.6%
same,"viability, T/C",[27],92.2%
same,"viability, T/C",[28],98.6%
same,"viability, T/C",[29],102%
same,"viability, T/C",[30],87.7%
same,"viability, T/C",[31],94.5%
same,"viability, T/C",[32],99.6%
same,"viability, T/C",[33],103%
same,"viability, T/C",[34],95.7%
same,"viability, T/C",[35],101%
same,"viability, T/C",[36],90.1%
same,"viability, T/C",[37],93.3%
same,"viability, T/C",[38],90.1%
same,"viability, T/C",[39],87.5%
same,"viability, T/C",[40],96%
same,"viability, T/C",[41],101%
same,"viability, T/C",[42],91%
CC(=O)OC12COC1CC(O)C1(C)C(=O)C(O)C3=C(C)C(OC(=O)C(O)C(NC(=O)OC(C)(C)C)c4ccccc4)CC(O)(C(OC(=O)c4ccccc4)C21)C3(C)C (stereo not drawn),"viability, T/C",compound 0.0316 µM,35% [middle of 4 runs]
same,"viability, T/C",compound 0.1 µM,33.6% [middle of 4 runs]
same,"viability, T/C",compound 0.316 µM,25.9% [middle of 4 runs]
same,"viability, T/C",compound 1 µM,27.1% [middle of 4 runs]
same,"viability, T/C",compound 3.16 µM,27.9% [middle of 4 runs]
same,"viability, T/C",compound 10 µM,33.1% [middle of 4 runs]
same,IC50,curve of compound,< 0.0316 µM
